How the values were obtained:
[1] = target: Glutamate receptor ionotropic, NMDA 2B (Mus musculus, UniProt P35438+Q01097); assay: Antagonist activity at mouse NR2B expressed in Hek293 cells co-expressing mouse NR1 assessed as inhibition of glutamic acid/glycine-induced intracellular Ca2+ levels measured after 1 day post induction by Fluo-3/AM dye-based fluorescence assay; assay type: cell-based
[2] = target: Glutamate receptor ionotropic, NMDA 2B (Rattus norvegicus, UniProt Q00960); assay: Displacement of [3H]-ifenprodil from NR2B in Wistar rat brain membrane after 120 mins by liquid scintillation counting analysis; assay type: cell membranes
Sequence of Glutamate receptor ionotropic, NMDA 2B (Rattus norvegicus, UniProt Q00960) (Q00960 whole entry): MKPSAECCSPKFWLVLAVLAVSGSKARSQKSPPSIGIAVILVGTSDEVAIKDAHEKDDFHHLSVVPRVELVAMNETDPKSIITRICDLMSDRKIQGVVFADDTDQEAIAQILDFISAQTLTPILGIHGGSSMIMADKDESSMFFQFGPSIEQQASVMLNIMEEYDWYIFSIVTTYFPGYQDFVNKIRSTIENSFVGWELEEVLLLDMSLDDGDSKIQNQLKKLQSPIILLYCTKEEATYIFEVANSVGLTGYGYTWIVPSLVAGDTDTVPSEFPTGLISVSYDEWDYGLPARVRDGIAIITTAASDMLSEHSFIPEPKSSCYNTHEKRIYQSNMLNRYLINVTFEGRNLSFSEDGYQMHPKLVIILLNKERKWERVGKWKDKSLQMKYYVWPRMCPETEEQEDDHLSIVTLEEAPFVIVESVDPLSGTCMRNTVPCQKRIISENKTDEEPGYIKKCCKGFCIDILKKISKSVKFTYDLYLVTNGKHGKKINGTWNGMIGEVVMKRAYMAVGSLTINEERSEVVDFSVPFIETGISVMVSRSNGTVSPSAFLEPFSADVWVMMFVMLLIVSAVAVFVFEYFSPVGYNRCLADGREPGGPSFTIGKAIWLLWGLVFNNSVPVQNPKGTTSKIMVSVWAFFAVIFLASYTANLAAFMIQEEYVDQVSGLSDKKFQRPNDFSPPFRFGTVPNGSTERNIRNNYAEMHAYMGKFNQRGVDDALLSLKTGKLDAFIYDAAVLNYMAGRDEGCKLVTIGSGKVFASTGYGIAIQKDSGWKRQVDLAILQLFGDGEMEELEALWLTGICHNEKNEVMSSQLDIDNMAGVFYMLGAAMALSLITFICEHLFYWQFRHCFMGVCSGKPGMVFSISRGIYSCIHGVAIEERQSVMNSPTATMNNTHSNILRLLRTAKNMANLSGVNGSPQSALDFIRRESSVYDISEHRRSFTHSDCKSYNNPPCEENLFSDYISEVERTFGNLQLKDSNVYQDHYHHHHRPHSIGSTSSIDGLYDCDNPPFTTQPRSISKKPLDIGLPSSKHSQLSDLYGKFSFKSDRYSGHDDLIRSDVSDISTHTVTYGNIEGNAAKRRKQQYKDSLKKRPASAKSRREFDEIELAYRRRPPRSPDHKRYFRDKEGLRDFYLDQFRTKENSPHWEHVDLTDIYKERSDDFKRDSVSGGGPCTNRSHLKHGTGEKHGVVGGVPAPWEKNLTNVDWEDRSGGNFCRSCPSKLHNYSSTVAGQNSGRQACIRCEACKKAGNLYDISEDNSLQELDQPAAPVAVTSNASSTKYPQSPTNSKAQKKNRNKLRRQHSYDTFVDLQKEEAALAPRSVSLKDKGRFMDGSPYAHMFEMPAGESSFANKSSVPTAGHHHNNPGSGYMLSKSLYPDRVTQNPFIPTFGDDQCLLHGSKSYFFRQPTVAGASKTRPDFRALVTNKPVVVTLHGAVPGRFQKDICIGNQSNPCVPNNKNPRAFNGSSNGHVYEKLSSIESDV

[3] = Oral bioavailability in Sprague-Dawley rat at 1 mg/kg administered through cassette dosing; assay type: ADME, organism-based; conditions: in vivo
[4] = Total clearance in Sprague-Dawley rat at 0.5 mg/kg, iv or 1 mg/kg, po administered through cassette dosing; assay type: ADME, organism-based; conditions: in vivo
[5] = Ratio of drug level in brain to plasma in Sprague-Dawley rat at 0.5 mg/kg, iv administered through cassette dosing measured after 0.5 hrs; assay type: ADME, organism-based; conditions: brain and plasma
hERG (KCNH2) = hERG (KCNH2) (Homo sapiens, UniProt Q12809); assay: Inhibition of human ERG expressed in HEK293 cells at 1 uM after 10 mins by whole cell patch clamp method relative to control; assay type: cell-based; conditions: HEK293 cells that express hERG
Sequence of hERG (KCNH2) (Q12809 whole entry): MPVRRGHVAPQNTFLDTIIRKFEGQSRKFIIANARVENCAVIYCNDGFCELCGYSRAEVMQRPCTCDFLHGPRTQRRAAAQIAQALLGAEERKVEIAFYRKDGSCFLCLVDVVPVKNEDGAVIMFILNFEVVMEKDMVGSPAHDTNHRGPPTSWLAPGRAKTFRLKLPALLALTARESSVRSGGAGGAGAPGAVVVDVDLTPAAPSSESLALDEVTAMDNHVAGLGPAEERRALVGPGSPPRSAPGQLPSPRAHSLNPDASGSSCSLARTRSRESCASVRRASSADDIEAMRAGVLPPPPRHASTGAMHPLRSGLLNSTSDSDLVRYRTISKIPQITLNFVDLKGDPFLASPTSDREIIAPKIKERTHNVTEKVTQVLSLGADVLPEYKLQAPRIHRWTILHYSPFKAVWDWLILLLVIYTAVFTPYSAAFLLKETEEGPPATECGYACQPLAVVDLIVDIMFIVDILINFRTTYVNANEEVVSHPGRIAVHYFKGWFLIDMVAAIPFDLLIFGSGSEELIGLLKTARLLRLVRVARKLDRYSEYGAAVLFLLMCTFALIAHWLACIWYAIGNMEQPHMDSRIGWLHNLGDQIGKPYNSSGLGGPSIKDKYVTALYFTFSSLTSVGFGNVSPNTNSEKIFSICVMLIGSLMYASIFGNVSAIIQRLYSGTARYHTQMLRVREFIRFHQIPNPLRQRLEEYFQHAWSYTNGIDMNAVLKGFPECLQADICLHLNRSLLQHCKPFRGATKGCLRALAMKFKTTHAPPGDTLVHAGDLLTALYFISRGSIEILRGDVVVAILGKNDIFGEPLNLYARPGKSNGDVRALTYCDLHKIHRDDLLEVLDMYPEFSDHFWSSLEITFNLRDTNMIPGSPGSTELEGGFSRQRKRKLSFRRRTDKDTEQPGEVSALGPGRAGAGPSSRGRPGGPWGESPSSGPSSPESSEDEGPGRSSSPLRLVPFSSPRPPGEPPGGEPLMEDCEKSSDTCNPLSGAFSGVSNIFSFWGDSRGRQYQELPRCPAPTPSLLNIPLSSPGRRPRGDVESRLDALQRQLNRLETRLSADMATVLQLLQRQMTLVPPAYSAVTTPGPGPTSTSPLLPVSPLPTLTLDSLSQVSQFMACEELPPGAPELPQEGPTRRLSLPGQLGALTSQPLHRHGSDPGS

Mus musculus [6] = assay: Analgesic activity in po dosed formalin-induced chronic pain ICR mouse model assessed as reduction in rate of licking time in early phase at 30 mg/kg administered 30 min prior to formalin challenge measured during first 5 mins post formalin challenge relative to control; assay type: functional
Mus musculus [7] = assay: Analgesic activity in po dosed formalin-induced chronic pain ICR mouse model assessed as reduction in rate of licking time in late phase at 30 mg/kg administered 30 min prior to formalin challenge measured during 10 to 30 mins post formalin challenge relative to control; assay type: functional
Mus musculus [8] = assay: Analgesic activity in po dosed formalin-induced chronic pain ICR mouse model assessed as reduction in rate of licking time in late phase at 50 mg/kg administered 30 min prior to formalin challenge measured during 10 to 30 mins post formalin challenge relative to control; assay type: functional
Mus musculus [9] = assay: Analgesic activity in po dosed formalin-induced chronic pain ICR mouse model assessed as reduction in rate of licking time in early phase at 50 mg/kg administered 30 min prior to formalin challenge measured during first 5 mins post formalin challenge relative to control; assay type: functional

Sequence of Glutamate receptor ionotropic, NMDA 2B (Mus musculus, UniProt P35438+Q01097) (Q01097 whole entry, one chain of several): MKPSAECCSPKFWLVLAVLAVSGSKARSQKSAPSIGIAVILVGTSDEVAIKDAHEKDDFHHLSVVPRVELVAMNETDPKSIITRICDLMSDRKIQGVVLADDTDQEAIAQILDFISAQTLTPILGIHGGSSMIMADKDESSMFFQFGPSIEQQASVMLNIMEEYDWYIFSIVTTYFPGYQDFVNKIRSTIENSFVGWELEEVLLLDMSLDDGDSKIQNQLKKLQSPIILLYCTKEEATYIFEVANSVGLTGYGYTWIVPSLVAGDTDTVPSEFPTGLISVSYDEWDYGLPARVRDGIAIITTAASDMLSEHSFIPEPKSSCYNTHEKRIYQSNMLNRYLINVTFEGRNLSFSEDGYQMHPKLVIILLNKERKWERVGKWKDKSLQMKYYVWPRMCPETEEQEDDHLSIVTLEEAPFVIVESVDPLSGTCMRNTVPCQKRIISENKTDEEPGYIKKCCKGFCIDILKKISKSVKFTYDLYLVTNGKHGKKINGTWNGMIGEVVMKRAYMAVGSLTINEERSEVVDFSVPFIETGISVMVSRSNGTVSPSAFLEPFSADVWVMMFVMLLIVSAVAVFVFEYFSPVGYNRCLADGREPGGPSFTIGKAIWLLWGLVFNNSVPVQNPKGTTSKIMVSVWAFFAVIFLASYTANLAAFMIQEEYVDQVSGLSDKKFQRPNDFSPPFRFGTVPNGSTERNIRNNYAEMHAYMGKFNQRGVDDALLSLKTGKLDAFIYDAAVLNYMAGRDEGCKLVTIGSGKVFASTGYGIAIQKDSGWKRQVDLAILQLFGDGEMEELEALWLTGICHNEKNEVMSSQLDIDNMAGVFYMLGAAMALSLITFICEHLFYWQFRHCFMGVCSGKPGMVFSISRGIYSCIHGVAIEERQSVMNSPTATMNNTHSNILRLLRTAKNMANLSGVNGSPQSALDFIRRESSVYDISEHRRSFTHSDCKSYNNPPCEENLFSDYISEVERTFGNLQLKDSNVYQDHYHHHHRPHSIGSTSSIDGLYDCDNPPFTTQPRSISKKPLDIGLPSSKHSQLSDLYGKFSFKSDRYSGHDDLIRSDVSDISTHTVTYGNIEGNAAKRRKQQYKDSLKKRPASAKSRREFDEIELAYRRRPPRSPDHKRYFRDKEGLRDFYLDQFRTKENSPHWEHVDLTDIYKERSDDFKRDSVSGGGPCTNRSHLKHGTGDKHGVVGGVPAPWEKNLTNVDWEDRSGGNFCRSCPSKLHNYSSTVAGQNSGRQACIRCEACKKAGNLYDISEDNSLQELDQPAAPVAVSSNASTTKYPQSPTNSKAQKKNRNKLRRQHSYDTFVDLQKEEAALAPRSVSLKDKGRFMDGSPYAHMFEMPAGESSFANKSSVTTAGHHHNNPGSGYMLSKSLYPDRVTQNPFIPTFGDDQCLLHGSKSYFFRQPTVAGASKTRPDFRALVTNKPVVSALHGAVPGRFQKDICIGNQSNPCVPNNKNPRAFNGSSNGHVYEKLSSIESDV

Compound | IC50 [1] | IC50 [2] | bioavailability [3] | clearance [4] | Kp at 0.5 h [5] | inhibition at 10 min, 1 µM (hERG (KCNH2)) | inhibition in vivo at 30 mg/kg (Mus musculus [6]) | inhibition in vivo at 30 mg/kg (Mus musculus [7]) | inhibition in vivo at 50 mg/kg (Mus musculus [8]) | inhibition in vivo at 50 mg/kg (Mus musculus [9])
O=c1ccc(-c2nc(C[C@]3(O)CC[C@@H](Cc4ccc(Cl)cc4)CC3)no2)c[nH]1 | 158 nM | 126 nM | – | – | – | – | – | – | – | –
O[C@]1(Cc2cc(-c3cn[nH]c3)on2)CC[C@H](Cc2ccc(C(F)(F)F)cc2)CC1 | 12.6 nM | 100 nM | 67.5% | 4 mL/min/kg | 2.66 | – | 84.8% | 96.5% | – | –
O=c1[nH]c2ccc(-c3cc(C[C@]4(O)CC[C@@H](Cc5ccc(Cl)cc5)CC4)no3)cc2o1 | 39.8 nM | 200 nM | – | – | – | – | – | – | – | –
O[C@]1(Cc2cc(-c3cn[nH]c3)on2)CC[C@H](Cc2ccc(F)c(F)c2)CC1 | 39.8 nM | 79.4 nM | 67.5% | 15.2 mL/min/kg | 1.99 | 15% | – | – | – | –
O=C1Cc2cc(NC(=O)C[C@]3(O)CC[C@@H](Cc4ccccc4)CC3)ccc2N1 | 15.8 nM | 31.6 nM | 28.2% | 16.5 mL/min/kg | 0.11 | 12.1% | – | – | – | –
O=c1[nH]c2ccc(-c3cc(C[C@]4(O)CC[C@@H](Cc5ccccc5)CC4)no3)cc2o1 | 15.8 nM | 100 nM | 8.4% | 12.1 mL/min/kg | 0.92 | – | – | – | – | –
O=C(C[C@]1(O)CC[C@@H](Cc2ccccc2)CC1)Nc1ccc2[nH]ncc2c1 | 39.8 nM | 63.1 nM | 23.7% | 21.5 mL/min/kg | 0.9 | 18% | – | – | 74.4% | 59.5%
O[C@]1(Cc2cc(-c3cn[nH]c3)on2)CC[C@@H](Cc2ccc(Cl)cc2)CC1 | 200 nM | 631 nM | – | – | – | – | – | – | – | –
COc1ccc(C[C@H]2CC[C@](O)(Cc3cc(-c4cn[nH]c4)on3)CC2)cc1 | 25.1 nM | 39.8 nM | 23.7% | 61.8 mL/min/kg | 1.64 | – | – | – | – | –
O=C(C[C@]1(O)CC[C@@H](Cc2ccccc2)CC1)Nc1ccc2[nH]c(=O)oc2c1 | 0.631 nM | 15.8 nM | 47.4% | 34.1 mL/min/kg | 0.25 | 13.2% | – | – | 66.7% | 58.1%
O[C@]1(Cc2cc(-c3cn[nH]c3)on2)CC[C@H](Cc2ccc(OC(F)(F)F)cc2)CC1 | 25.1 nM | 79.4 nM | 121% | 6.2 mL/min/kg | 2.51 | – | 76.8% | 95.4% | – | –
O[C@]1(Cc2cc(-c3cn[nH]c3)on2)CC[C@H](Cc2ccccc2)CC1 | 15.8 nM | 39.8 nM | 46.3% | 56.5 mL/min/kg | 1.44 | 14% | – | – | – | –
O=c1ccc(-c2cc(C[C@]3(O)CC[C@H](Cc4ccc(Cl)cc4)CC3)no2)c[nH]1 | 63.1 nM | 316 nM | 38.7% | 6.6 mL/min/kg | 0.47 | 29.2% | – | – | – | –
O=C1CCc2cc(NC(=O)C[C@]3(O)CC[C@@H](Cc4ccccc4)CC3)ccc2N1 | 10 nM | 31.6 nM | 53.4% | 24.4 mL/min/kg | 0.18 | 11.3% | – | – | 25.7% | 1.5%
O=C(C[C@]1(O)CC[C@H](Cc2ccc(F)cc2)CC1)Nc1ccc2[nH]c(=O)oc2c1 | 15.8 nM | 39.8 nM | 58% | 42.3 mL/min/kg | 0.23 | 12.2% | – | – | – | –

Continued by falling IC50 [1], values first:

IC50 [1] | IC50 [2] | bioavailability [3] | clearance [4] | Kp at 0.5 h [5] | Compound | inhibition at 10 min, 1 µM (hERG (KCNH2)) | inhibition in vivo at 30 mg/kg (Mus musculus [6]) | inhibition in vivo at 30 mg/kg (Mus musculus [7]) | inhibition in vivo at 50 mg/kg (Mus musculus [8]) | inhibition in vivo at 50 mg/kg (Mus musculus [9])
15.8 nM | 31.6 nM | 33% | 35.1 mL/min/kg | 0.9 | O=C(C[C@]1(O)CC[C@H](Cc2ccccc2)CC1)Nc1ccc2[nH]c(=O)oc2c1 | 7.7% | – | – | – | –
12.6 nM | 12.6 nM | 78% | 30 mL/min/kg | 1.62 | O[C@]1(Cc2cc(-c3cn[nH]c3)on2)CC[C@H](Cc2ccc(F)cc2)CC1 | 22.5% | – | – | – | –
10 nM | 25.1 nM | 53.1% | 37.6 mL/min/kg | 0.34 | O=c1ccc(-c2cc(C[C@]3(O)CC[C@@H](Cc4ccccc4)CC3)no2)c[nH]1 | 4.4% | – | – | – | –
6.31 nM | 25.1 nM | – | – | – | O=C(C[C@]1(O)CC[C@@H](Cc2ccc(C(F)(F)F)cc2)CC1)Nc1ccc2[nH]c(=O)oc2c1 | – | – | – | – | –
6.31 nM | 39.8 nM | 72.8% | 11.7 mL/min/kg | 1.31 | O[C@]1(Cc2cc(-c3cn[nH]c3)on2)CC[C@H](Cc2ccc(Cl)cc2)CC1 | 32% | – | – | – | –
3.16 nM | 25.1 nM | – | – | – | O=C(C[C@]1(O)CC[C@@H](Cc2ccc(Cl)cc2)CC1)Nc1ccc2[nH]c(=O)oc2c1 | – | – | – | – | –
3.16 nM | 50.1 nM | 53.4% | 21 mL/min/kg | 0.15 | O=C(C[C@]1(O)CC[C@@H](Cc2ccc(OC(F)(F)F)cc2)CC1)Nc1ccc2[nH]c(=O)oc2c1 | – | – | – | – | –
3.16 nM | 31.6 nM | 30% | 37.1 mL/min/kg | 1 | O=C(Nc1ccc2[nH]c(=O)oc2c1)C(=O)N1CCC(Cc2ccc(F)cc2)CC1 [RADIPRODIL] | – | – | – | – | –
2 nM | 25.1 nM | 12.1% | 35.7 mL/min/kg | 0.14 | O=C(C[C@]1(O)CC[C@@H](Cc2ccc(F)c(F)c2)CC1)Nc1ccc2[nH]c(=O)oc2c1 | – | – | – | – | –
1 nM | 25.1 nM | 37.2% | 16.8 mL/min/kg | 0.08 | O=c1ccc(-c2cc(C[C@]3(O)CC[C@@H](Cc4ccc(Cl)cc4)CC3)no2)c[nH]1 | 23% | – | – | – | –
1 nM | 63.1 nM | 16% | 45.9 mL/min/kg | 0.11 | COc1ccc(C[C@H]2CC[C@](O)(CC(=O)Nc3ccc4[nH]c(=O)oc4c3)CC2)cc1 | – | – | – | – | –
0.631 nM | 25.1 nM | 42.4% | 36.8 mL/min/kg | 0.12 | O=C(C[C@]1(O)CC[C@@H](Cc2ccc(F)cc2)CC1)Nc1ccc2[nH]c(=O)oc2c1 | 26.1% | – | – | – | –

From ChEMBL document CHEMBL4052799, “Discovery of orally bioavailable cyclohexanol-based NR2B-selective NMDA receptor antagonists with analgesic activity utilizing a scaffold hopping approach” (Bioorg Med Chem Lett, 2017)
